From the supplement of paper PMC11061612

Assays:
[1] = test system: KARPAS-1106P (B-Cell Non-Hodgkin's Lymphoma); assay: Bliss excess, mean over the matrix (fraction); higher = more synergy
Summary of the method: (§1)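 Cell lines in DMEM/F12 or RPMI with 10% FBS were plated in 1536-well plates, held 24 hours at 37°C, 5% CO2, then given two-drug dose matrices for 72 hours (DMSO typically 0.2%). Viability was read by CellTiter-Glo 2.0 luminescence and scaled as inhibition from 0 (vehicle wells) to 1 (blank wells). Combination Emax is the second-highest inhibition in the matrix; Bliss excess is observed combination effect minus expected EA + EB − EA·EB, EA and EB being single-agent effects.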

[2] = test system: G-292-Clone-A141B1 (Osteosarcoma); assay: as above
Summary of the method: as §1

[3] = test system: KM-H2 (Hodgkin's Lymphoma); assay: as above
Summary of the method: as §1

[4] = test system: KATOIII (Gastric Carcinoma); assay: as above
Summary of the method: as §1

RH-1 (Ewing's Sarcoma) = assay: as above
Summary of the method: as §1

NCI-H2595 (Mesothelioma) [5] = assay: as above
Summary of the method: as §1

[6] = test system: SUIT-2 (Pancreatic Carcinoma); assay: as above
Summary of the method: as §1

[7] = test system: SW1990 (Pancreatic Carcinoma); assay: as above
Summary of the method: as §1

[8] = test system: NCI-H1694 (Small Cell Lung Carcinoma); assay: as above
Summary of the method: as §1

[9] = test system: TGBC24TKB (Biliary Tract Carcinoma); assay: as above
Summary of the method: as §1

[10] = test system: CTV-1 (T-Lymphoblastic Leukemia); assay: as above
Summary of the method: as §1

[11] = test system: KARPAS-1106P (B-Cell Non-Hodgkin's Lymphoma); assay: combination Emax (second highest fraction inhibited in the dose matrix, 72 h); higher = more inhibition; extreme values may be limits of the assay
Summary of the method: as §1

[12] = test system: HCC2157 (Breast Carcinoma); assay: as above
Summary of the method: as §1

[13] = test system: DMS-273 (Small Cell Lung Carcinoma); assay: as above
Summary of the method: as §1

[14] = test system: G-292-Clone-A141B1 (Osteosarcoma); assay: as above
Summary of the method: as §1

[15] = test system: NALM-6 (B-Lymphoblastic Leukemia); assay: as above
Summary of the method: as §1

IGR-1 (Melanoma) = assay: as above
Summary of the method: as §1

[16] = test system: SW1088 (Low Grade Glioma); assay: as above
Summary of the method: as §1

NCI-H2595 (Mesothelioma) [17] = assay: as above
Summary of the method: as §1

[18] = test system: CTV-1 (T-Lymphoblastic Leukemia); assay: as above
Summary of the method: as §1
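Wherever Bliss excess, mean over the matrix is given: after 72 h of two-drug dosing.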

C[C@@H]1COCCN1c1cc(C2([S@](C)(=N)=O)CC2)nc(-c2ccnc3[nH]ccc23)n1 [AZD6738] + O=C(c1cc(Cc2n[nH]c(=O)c3ccccc23)ccc1F)N1CCN(C(=O)C2CC2)CC1 [Olaparib] (first compound max 10 µM, 7x7, partner max 10 µM)
Bliss excess [1]: -0.0236
Bliss excess [2]: 0.0195
Bliss excess [3]: 0.024
Bliss excess [4]: -0.0286
Bliss excess (RH-1 (Ewing's Sarcoma)): 0.0873
Bliss excess (NCI-H2595 (Mesothelioma) [5]): -0.0073
Bliss excess [6]: -0.0264
Bliss excess [7]: -0.0071
Bliss excess [8]: 0.0089
Bliss excess [9]: -0.0113
Bliss excess [10]: 0.043
combination Emax [11]: 0.672
combination Emax [12]: 0.907
combination Emax [13]: 0.721
combination Emax [14]: 0.283
combination Emax [15]: 0.976
combination Emax (IGR-1 (Melanoma)): 0.452
combination Emax [16]: 0.501
combination Emax (NCI-H2595 (Mesothelioma) [17]): 0.214
combination Emax [18]: 0.916

CC1(C)CCC(CN2CCN(c3ccc(C(=O)NS(=O)(=O)c4ccc(NCC5CCOCC5)c([N+](=O)[O-])c4)c(Oc4cnc5[nH]ccc5c4)c3)CC2)=C(c2ccc(Cl)cc2)C1 [Venetoclax] + C=CCn1c(=O)c2cnc(Nc3ccc(N4CCN(C)CC4)cc3)nc2n1-c1cccc(C(C)(C)O)n1 [AZD1775] (first compound max 1 µM, partner max 1 µM)
Bliss excess [1]: 0.0627
Bliss excess [2]: -0.0023
Bliss excess [3]: 0.02
Bliss excess [4]: 0.0093
Bliss excess (RH-1 (Ewing's Sarcoma)): -0.0123
Bliss excess (NCI-H2595 (Mesothelioma) [5]): -0.0316
Bliss excess [6]: -0.0295
Bliss excess [7]: 0.0206
Bliss excess [8]: 0.0226
Bliss excess [9]: -0.0108
Bliss excess [10]: -0.0327
combination Emax [11]: 0.917
combination Emax [12]: 0.782
combination Emax [13]: 0.749
combination Emax [14]: 0.263
combination Emax [15]: 1
combination Emax (IGR-1 (Melanoma)): 0.396
combination Emax [16]: 0.648
combination Emax (NCI-H2595 (Mesothelioma) [17]): 0.189
combination Emax [18]: 0.992

Cc1cc2ncnn2cc1Nc1ncc2c(n1)n(C1CCOCC1)c(=O)n2C [AZD7648] + O=C(c1cc(Cc2n[nH]c(=O)c3ccccc23)ccc1F)N1CCN(C(=O)C2CC2)CC1 [Olaparib] (first compound max 10 µM, 7x7, partner max 10 µM)
Bliss excess [1]: -0.0538
Bliss excess [2]: -0.0855
Bliss excess [3]: -0.0127
Bliss excess [4]: -0.0367
Bliss excess (RH-1 (Ewing's Sarcoma)): -0.0115
Bliss excess (NCI-H2595 (Mesothelioma) [5]): -0.0258
Bliss excess [6]: 0.0151
Bliss excess [7]: -0.054
Bliss excess [8]: -0.0004
Bliss excess [9]: -0.0128
Bliss excess [10]: 0.0056
combination Emax [11]: 0.41
combination Emax [12]: 0.413
combination Emax [13]: 0.553
combination Emax [14]: 0.121
combination Emax [15]: 0.513
combination Emax (IGR-1 (Melanoma)): 0.164
combination Emax [16]: 0.303
combination Emax (NCI-H2595 (Mesothelioma) [17]): 0.116
combination Emax [18]: 0.279

COc1nnc2ccc(N3CCC(c4ccc(OCCN5CCN(C)C(=O)[C@H]5C)cc4)CC3)nn12 [AZD5153] + C[C@@H]1COCCN1C2=NC(=NC(=C2)C3(CC3)[S@](=N)(=O)C)C4=C5C=CNC5=NC=C4 [AZD6738] (first compound max 1 µM, 7x7, partner max 10 µM)
Bliss excess [1]: -0.0455
Bliss excess [2]: 0.0166
Bliss excess [3]: -0.008
Bliss excess [4]: -0.0164
Bliss excess (RH-1 (Ewing's Sarcoma)): 0.0071
Bliss excess (NCI-H2595 (Mesothelioma) [5]): 0.0346
Bliss excess [6]: 0.0468
Bliss excess [7]: -0.0424
Bliss excess [8]: 0.008
Bliss excess [9]: 0.0292
Bliss excess [10]: 0.0194
combination Emax [11]: 0.944
combination Emax [12]: 1
combination Emax [13]: 0.883
combination Emax [14]: 0.458
combination Emax [15]: 0.958
combination Emax (IGR-1 (Melanoma)): 0.728
combination Emax [16]: 0.645
combination Emax (NCI-H2595 (Mesothelioma) [17]): 0.461
combination Emax [18]: 0.987

CN(CCO)CC[C@H](CSc1ccccc1)Nc1ccc(S(=O)(=O)NC(=O)c2ccc(N3CCC([C@@H](O)c4ccccc4-c4ccc(Cl)cc4)CC3)cc2)cc1S(=O)(=O)C(F)(F)F [AZD4320] + Cc1cc2ncnn2cc1Nc1ncc2c(n1)n(C1CCOCC1)c(=O)n2C [AZD7648] (first compound max 1 µM, 7x7, partner max 10 µM)
Bliss excess [1]: 0.0101
Bliss excess [2]: -0.032
Bliss excess [3]: -0.0231
Bliss excess [4]: -0.0343
Bliss excess (RH-1 (Ewing's Sarcoma)): -0.0018
Bliss excess (NCI-H2595 (Mesothelioma) [5]): -0.0214
Bliss excess [6]: -0.0389
Bliss excess [7]: -0.0418
Bliss excess [8]: 0.0357
Bliss excess [9]: 0.0059
Bliss excess [10]: 0.001
combination Emax [11]: 0.313
combination Emax [12]: 0.959
combination Emax [13]: 0.398
combination Emax [14]: 0.624
combination Emax [15]: 0.975
combination Emax (IGR-1 (Melanoma)): 0.33
combination Emax [16]: 0.332
combination Emax (NCI-H2595 (Mesothelioma) [17]): 0.12
combination Emax [18]: 0.315

COc1cccc2c1C(=O)c1c(O)c3c(c(O)c1C2=O)C[C@@](O)(C(=O)CO)C[C@@H]3O[C@H]1C[C@H](N)[C@H](O)[C@H](C)O1 [Doxorubicin] + Cc1cc2ncnn2cc1Nc1ncc2c(n1)n(C1CCOCC1)c(=O)n2C [AZD7648] (first compound max 1 µM, 7x7, partner max 10 µM)
Bliss excess [1]: 0.0713
Bliss excess [2]: -0.0023
Bliss excess [3]: 0.116
Bliss excess [4]: -0.0354
Bliss excess (RH-1 (Ewing's Sarcoma)): 0.163
Bliss excess (NCI-H2595 (Mesothelioma) [5]): 0.0084
Bliss excess [6]: 0.0432
Bliss excess [7]: -0.0224
Bliss excess [8]: 0.12
Bliss excess [9]: -0.002
Bliss excess [10]: 0.119
combination Emax [11]: 0.988
combination Emax [12]: 0.925
combination Emax [13]: 0.866
combination Emax [14]: 0.247
combination Emax [15]: 1
combination Emax (IGR-1 (Melanoma)): 0.697
combination Emax [16]: 0.477
combination Emax (NCI-H2595 (Mesothelioma) [17]): 0.531
combination Emax [18]: 1
